Test results taken from US20080299222A1, “Bioactive agrichemical compositions and use thereof” (priority 2007, published 2008).

Test system: E. amylovora 153N
Experiment: Fire blight on Snow Drift crabapple trees (Example 287)
Assay type: in vivo, Erwinia amylovora
Settings: rate 5 lbs/a (2.27 kg/a), mean of the counts, 100 blossoms per subplot
Procedure: A study of the bioefficacy of the various agrichemical compositions, including bioactive acid solutions and blends thereof with an antibiotic agrichemical, were evaluated to assess their bioefficacy against fire blight on crabapples. The study was conducted on 5 year old Snow Drift crabapple trees, with each of the compositions being applied to ten trees in two-subplots of five trees, four different times: at 100% bloom—day 1, a second application was made on day 4, a third on day 11 and a final treatment on day 19. The trees were inoculated with E. amylovora 153N at a concentration of 4×10^6 cells per milliliter on day 1, following drying of the treatment, with the inoculation being repeated on day 13. Evaluation for fire blight was completed on 100 blossoms for each of the subplots on day 12, day 19 and day 27. Additionally, the incidence of shoot infection and the length of cankers were evaluated on day 63.
The test compositions were prepared by forming solutions of the bioactive agents. Two different dilutions of the MI2 bioactive were evaluated; the first employing 94.46 ml/gallon (25 ml/l) of water (5 ppm of each metal) and the second 188.9 ml/gallon (50 ml/l) of water (10 ppm of each metal). A streptomycin product (17% concentrated) was diluted at a rate of 0.049 lbs/gallon ([…]) (200 ppm). Finally, copper hydroxide was diluted at a rate of 1 lb/gallon (119.8 g/l). Each of the compositions and blends were spray applied at a rate of 50 gallons (189.3 l) pre acre. The results are presented as the mean of the counts.

[Cu+2].[OH-].[OH-] [copper hydroxide]
Blossom Incidence (Day 12): 3.1
Blossom Incidence (Day 19): 2.2
Blossom Incidence (Day 27): 9.0
